{
  "source": "patent US20230365592A1",
  "about": "(Agios Pharmaceuticals, Inc., priority 2022, published 2023)",
  "data": [
    {"biological_target": "T1, human PAH with the R408W mutation (Homo sapiens, UniProt P00439, R408W)", "T1 construct": "expressed in transfected cells", "T1 sequence (P00439 1-452 R408W)": "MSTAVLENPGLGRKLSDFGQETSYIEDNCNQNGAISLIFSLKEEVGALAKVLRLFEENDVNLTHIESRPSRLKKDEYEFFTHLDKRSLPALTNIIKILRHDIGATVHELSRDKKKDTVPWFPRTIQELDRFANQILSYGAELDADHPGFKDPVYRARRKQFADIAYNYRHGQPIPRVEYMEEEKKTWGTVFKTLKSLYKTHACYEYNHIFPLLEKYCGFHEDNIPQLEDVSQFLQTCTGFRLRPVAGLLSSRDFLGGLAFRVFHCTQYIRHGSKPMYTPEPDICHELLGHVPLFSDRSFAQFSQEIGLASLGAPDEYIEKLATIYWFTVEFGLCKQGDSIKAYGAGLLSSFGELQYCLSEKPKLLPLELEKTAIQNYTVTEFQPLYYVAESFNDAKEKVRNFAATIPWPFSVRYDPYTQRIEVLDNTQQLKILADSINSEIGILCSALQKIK", "assay": "Cell Based Phenylalanine Flux Assay;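 note: after compound treatment, cells received sepiapterin plus isotope-labelled Phenylalanine for 4 hours, then labelled Tyrosine in the medium was quantified, 10-point 2-fold dilution series run in duplicate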", "settings": "A375 cells expressing human R408W PAH; 24 hrs compound incubation; 13C-Tyrosine by LC-MS; average where tested multiple times; read-out: AC50", "units": {"AC50": "nM"}, "values": [
      {"smiles": "Cc1nc(C(C)(C)F)oc1C(=O)N1CCc2[nH]cnc2[C@@H]1c1cc2ccccn2n1", "note": "[Example 1251, (R)-(2-(2-fluoropropan-2-yl)-4-methyloxazol-5-yl)(4-(pyrazolo[1,5-a]pyridin-2-yl)-6,7-dihydro-1H-imidazo[4,5-c]pyridin-5(4H)-yl)methanone]", "AC50": "500 to 1000"},
      {"smiles": "Cc1nc(C(C)(C)F)oc1C(=O)N1CCc2[nH]cnc2[C@H]1c1cc2cccc(C)n2n1", "note": "[Example 1252, (S)-(2-(2-fluoropropan-2-yl)-4-methyloxazol-5-yl)(4-(7-methylpyrazolo[1,5-a]pyridin-2-yl)-6,7-dihydro-1H-imidazo[4,5-c]pyridin-5(4H)-yl)methanone]", "AC50": "< 500"},
      {"smiles": "Cc1nc(C(C)(C)F)oc1C(=O)N1CCc2[nH]cnc2[C@@H]1c1cc2cccc(C)n2n1", "note": "[Example 1253, (R)-(2-(2-fluoropropan-2-yl)-4-methyloxazol-5-yl)(4-(7-methylpyrazolo[1,5-a]pyridin-2-yl)-6,7-dihydro-1H-imidazo[4,5-c]pyridin-5(4H)-yl)methanone]", "AC50": "1000 to 5000"},
      {"smiles": "CC(C)(F)c1nc(C(F)F)c(C(=O)N2CCc3[nH]cnc3[C@@H]2c2cc3ccccn3n2)o1", "note": "[Example 1254, (R)-(4-(difluoromethyl)-2-(2-fluoropropan-2-yl)oxazol-5-yl)(4-(pyrazolo[1,5-a]pyridin-2-yl)-6,7-dihydro-1H-imidazo[4,5-c]pyridin-5(4H)-yl)methanone]", "AC50": "1000 to 5000"},
      {"smiles": "CC(C)(F)c1nc(C(F)F)c(C(=O)N2CCc3[nH]cnc3[C@H]2c2cc3ccccn3n2)o1", "note": "[Example 1255, (S)-(4-(difluoromethyl)-2-(2-fluoropropan-2-yl)oxazol-5-yl)(4-(pyrazolo[1,5-a]pyridin-2-yl)-6,7-dihydro-1H-imidazo[4,5-c]pyridin-5(4H)-yl)methanone]", "AC50": "< 500"},
      {"smiles": "O=C(c1nnc(-c2ccncn2)o1)N1CCc2[nH]cnc2[C@@H]1c1cc2c(F)cccn2n1", "note": "[Example 1259, (R)-(4-(4-fluoropyrazolo[1,5-a]pyridin-2-yl)-6,7-dihydro-1H-imidazo[4,5-c]pyridin-5(4H)-yl)(5-(pyrimidin-4-yl)-1,3,4-oxadiazol-2-yl)methanone]", "AC50": "1000 to 5000"},
      {"smiles": "Cc1nc(C(C)(C)F)oc1C(=O)N1CCc2[nH]cnc2[C@H]1c1cc2c(C)cccn2n1", "note": "[Example 1260, (S)-(2-(2-fluoropropan-2-yl)-4-methyloxazol-5-yl)(4-(4-methylpyrazolo[1,5-a]pyridin-2-yl)-6,7-dihydro-1H-imidazo[4,5-c]pyridin-5(4H)-yl)methanone]", "AC50": "< 500"},
      {"smiles": "Cc1nc(C(C)(C)F)oc1C(=O)N1CCc2[nH]cnc2[C@H]1c1cc2c(C(F)(F)F)cccn2n1", "note": "[Example 1262, (S)-(2-(2-fluoropropan-2-yl)-4-methyloxazol-5-yl)(4-(4-(trifluoromethyl)pyrazolo[1,5-a]pyridin-2-yl)-6,7-dihydro-1H-imidazo[4,5-c]pyridin-5(4H)-yl)methanone]", "AC50": "< 500"},
      {"smiles": "Cc1nc(C(C)(C)F)oc1C(=O)N1CCc2[nH]cnc2[C@H]1c1cc2cccc(Cl)n2n1", "note": "[Example 1266, (S)-(4-(7-chloropyrazolo[1,5-a]pyridin-2-yl)-6,7-dihydro-1H-imidazo[4,5-c]pyridin-5(4H)-yl)(2-(2-fluoropropan-2-yl)-4-methyloxazol-5-yl)methanone]", "AC50": "< 500"},
      {"smiles": "O=C(c1oc(C2(O)CC2)nc1C(F)F)N1CCc2[nH]cnc2[C@H]1c1cc2cccc(C(F)(F)F)n2n1", "note": "[Example 1268, (S)-(4-(difluoromethyl)-2-(1-hydroxycyclopropyl)oxazol-5-yl)(4-(7-(trifluoromethyl)pyrazolo[1,5-a]pyridin-2-yl)-6,7-dihydro-1H-imidazo[4,5-c]pyridin-5(4H)-yl)methanone]", "AC50": "< 500"},
      {"smiles": "O=C(c1cnn2ccccc12)N1CCc2[nH]cnc2[C@H]1c1cc2c(C(F)(F)F)cccn2n1", "note": "[Example 1270, (S)-pyrazolo[1,5-a]pyridin-3-yl(4-(4-(trifluoromethyl)pyrazolo[1,5-a]pyridin-2-yl)-6,7-dihydro-1H-imidazo[4,5-c]pyridin-5(4H)-yl)methanone]", "AC50": "< 500"},
      {"smiles": "O=C(c1cnn2ccccc12)N1CCc2[nH]cnc2[C@H]1c1cc2c(Cl)cccn2n1", "note": "[Example 1272, (S)-(4-(4-chloropyrazolo[1,5-a]pyridin-2-yl)-6,7-dihydro-1H-imidazo[4,5-c]pyridin-5(4H)-yl)(pyrazolo[1,5-a]pyridin-3-yl)methanone]", "AC50": "< 500"},
      {"smiles": "Cc1nc(C(C)(C)F)oc1C(=O)N1CCc2[nH]cnc2[C@@H]1c1cc2c(F)cccn2n1", "note": "[Example 1274, (R)-(2-(2-fluoropropan-2-yl)-4-methyloxazol-5-yl)(4-(4-fluoropyrazolo[1,5-a]pyridin-2-yl)-6,7-dihydro-1H-imidazo[4,5-c]pyridin-5(4H)-yl)methanone]", "AC50": "< 500"},
      {"smiles": "Cc1nc(C(C)(C)F)oc1C(=O)N1CCc2[nH]cnc2[C@H]1c1cc2c(F)cccn2n1", "note": "[Example 1275, (S)-(2-(2-fluoropropan-2-yl)-4-methyloxazol-5-yl)(4-(4-fluoropyrazolo[1,5-a]pyridin-2-yl)-6,7-dihydro-1H-imidazo[4,5-c]pyridin-5(4H)-yl)methanone]", "AC50": "< 500"},
      {"smiles": "Cc1nc(C(C)(C)F)oc1C(=O)N1CCc2[nH]cnc2[C@H]1c1cc2c(Cl)cccn2n1", "note": "[Example 1276, (S)-(4-(4-chloropyrazolo[1,5-a]pyridin-2-yl)-6,7-dihydro-1H-imidazo[4,5-c]pyridin-5(4H)-yl)(2-(2-fluoropropan-2-yl)-4-methyloxazol-5-yl)methanone]", "AC50": "< 500"},
      {"smiles": "Cc1nc(C(C)(C)F)oc1C(=O)N1CCc2[nH]cnc2[C@@H]1c1cc2c(Cl)cccn2n1", "note": "[Example 1277, (R)-(4-(4-chloropyrazolo[1,5-a]pyridin-2-yl)-6,7-dihydro-1H-imidazo[4,5-c]pyridin-5(4H)-yl)(2-(2-fluoropropan-2-yl)-4-methyloxazol-5-yl)methanone]", "AC50": "< 500"},
      {"smiles": "Cc1nc(C(C)(C)F)oc1C(=O)N1CCc2[nH]cnc2[C@H]1c1cc2cccc(F)n2n1", "note": "[Example 1278, (S)-(2-(2-fluoropropan-2-yl)-4-methyloxazol-5-yl)(4-(7-fluoropyrazolo[1,5-a]pyridin-2-yl)-6,7-dihydro-1H-imidazo[4,5-c]pyridin-5(4H)-yl)methanone]", "AC50": "< 500"},
      {"smiles": "Cc1cccc2cc([C@H]3c4nc[nH]c4CCN3C(=O)c3oc(C4(O)CC4)nc3C(F)F)nn12", "note": "[Example 1281, (R)-(4-(difluoromethyl)-2-(1-hydroxycyclopropyl)oxazol-5-yl)(4-(7-methylpyrazolo[1,5-a]pyridin-2-yl)-6,7-dihydro-1H-imidazo[4,5-c]pyridin-5(4H)-yl)methanone]", "AC50": "1000 to 5000"},
      {"smiles": "Cc1nnc(C(=O)N2CCc3[nH]cnc3[C@H]2c2cc3c(C(F)F)cccn3n2)o1", "note": "[Example 1283, (S)-(4-(4-(difluoromethyl)pyrazolo[1,5-a]pyridin-2-yl)-6,7-dihydro-1H-imidazo[4,5-c]pyridin-5(4H)-yl)(5-methyl-1,3,4-oxadiazol-2-yl)methanone]", "AC50": "500 to 1000"},
      {"smiles": "CC1(c2nnc(C(=O)N3CCc4[nH]cnc4[C@H]3c3cc4ccccn4n3)o2)CC1", "note": "[Example 1284, (S)-(5-(1-methylcyclopropyl)-1,3,4-oxadiazol-2-yl)(4-(pyrazolo[1,5-a]pyridin-2-yl)-6,7-dihydro-1H-imidazo[4,5-c]pyridin-5(4H)-yl)methanone]", "AC50": "< 500"},
      {"smiles": "CC1(c2nnc(C(=O)N3CCc4[nH]cnc4[C@@H]3c3cc4ccccn4n3)o2)CC1", "note": "[Example 1285, (R)-(5-(1-methylcyclopropyl)-1,3,4-oxadiazol-2-yl)(4-(pyrazolo[1,5-a]pyridin-2-yl)-6,7-dihydro-1H-imidazo[4,5-c]pyridin-5(4H)-yl)methanone]", "AC50": "1000 to 5000"},
      {"smiles": "Cc1cccn2nc([C@@H]3c4nc[nH]c4CCN3C(=O)c3cnn4ccccc34)cc12", "note": "[Example 1286, (S)-(4-(4-methylpyrazolo[1,5-a]pyridin-2-yl)-6,7-dihydro-1H-imidazo[4,5-c]pyridin-5(4H)-yl)(pyrazolo[1,5-a]pyridin-3-yl)methanone]", "AC50": "< 500"},
      {"smiles": "Cc1cccn2nc([C@H]3c4nc[nH]c4CCN3C(=O)c3cnn4ccccc34)cc12", "note": "[Example 1287, (R)-(4-(4-methylpyrazolo[1,5-a]pyridin-2-yl)-6,7-dihydro-1H-imidazo[4,5-c]pyridin-5(4H)-yl)(pyrazolo[1,5-a]pyridin-3-yl)methanone]", "AC50": "500 to 1000"},
      {"smiles": "O=C(c1cnn2ccccc12)N1CCc2[nH]cnc2[C@@H]1c1cc2c(F)cccn2n1", "note": "[Example 1288, (R)-(4-(4-fluoropyrazolo[1,5-a]pyridin-2-yl)-6,7-dihydro-1H-imidazo[4,5-c]pyridin-5(4H)-yl)(pyrazolo[1,5-a]pyridin-3-yl)methanone]", "AC50": "500 to 1000"},
      {"smiles": "O=C(c1cnn2ccccc12)N1CCc2[nH]cnc2[C@H]1c1cc2c(F)cccn2n1", "note": "[Example 1289, (S)-(4-(4-fluoropyrazolo[1,5-a]pyridin-2-yl)-6,7-dihydro-1H-imidazo[4,5-c]pyridin-5(4H)-yl)(pyrazolo[1,5-a]pyridin-3-yl)methanone]", "AC50": "< 500"},
      {"smiles": "c1ccc(-c2nnc(N3CCc4[nH]cnc4[C@@H]3c3cc4ccccn4n3)o2)nc1", "note": "[Example 1290, (R)-2-(4-(pyrazolo[1,5-a]pyridin-2-yl)-6,7-dihydro-1H-imidazo[4,5-c]pyridin-5(4H)-yl)-5-(pyridin-2-yl)-1,3,4-oxadiazole]", "AC50": "1000 to 5000"},
      {"smiles": "c1ccc(-c2nnc(N3CCc4[nH]cnc4[C@H]3c3cc4ccccn4n3)o2)nc1", "note": "[Example 1291, (S)-2-(4-(pyrazolo[1,5-a]pyridin-2-yl)-6,7-dihydro-1H-imidazo[4,5-c]pyridin-5(4H)-yl)-5-(pyridin-2-yl)-1,3,4-oxadiazole]", "AC50": "500 to 1000"}
    ]}
  ]
}
